Converted amounts (≈) assume the structure as drawn.

For one test, the system named is Pseudomonas putida. Briefly: Antibacterial activity against Pseudomonas putida after 18 to 24 hrs by microbroth dilution method. The class given is functional. Conditions: for MIC: Pseudomonas putida. For orientation: In broth dilution the organism is exposed to a series of concentrations in liquid medium.
A further test deals with Bacillus subtilis. Briefly: Antibacterial activity against Bacillus subtilis after 18 to 24 hrs by microbroth dilution method. The class given is functional. To be noted: for MIC: Bacillus subtilis.
In a further test the test system is Escherichia coli. Briefly: Antibacterial activity against Escherichia coli after 18 to 24 hrs by microbroth dilution method. The class given is functional. Conditions: for MIC: Escherichia coli.
A short description of test [1]: Cytotoxicity against human HEK293T cells after 48 hrs by MTT assay. The class given is cell-based. Conditions: HEK-293T.
The next test concerns Staphylococcus aureus. Briefly: Antibacterial activity against Staphylococcus aureus after 18 to 24 hrs by microbroth dilution method. The class given is functional. Conditions: for MIC: Staphylococcus aureus.
The nature of test [2]: Cytotoxicity against human BxPC3 cells after 48 hrs by MTT assay. Conditions: BXPC-3, 48 h. The class given is functional, cell-based. Background: Formazan colour is commonly taken as a measure of viable cells.
For a further test, the system named is MDA-MB-231. Briefly: Cytotoxicity against human MDA-MB-231 cells after 48 hrs by MTT assay. To be noted: MDA-MB-231, 48 h. The class given is functional, cell-based.
Test [3] is described as follows: Cytotoxicity against human PC3 cells after 48 hrs by MTT assay. The class given is functional, cell-based. To be noted: PC-3, 48 h.
The subject of another test is Klebsiella pneumoniae. Briefly: Antibacterial activity against Klebsiella pneumoniae after 18 to 24 hrs by microbroth dilution method. The class given is functional. Conditions: for MIC: Klebsiella pneumoniae.
The subject of a further test is HeLa. Briefly: Cytotoxicity against human HeLa cells after 48 hrs by MTT assay. The class given is functional, cell-based.
Test [4] in a line: Cytotoxicity against human C4-2 cells after 48 hrs by MTT assay. The class given is functional, cell-based. To be noted: LNCaP C4-2, 48 h.

For the compound `CCn1cc(C(=O)C(=O)NCCc2c[nH]c3ccccc23)c2ccccc21`, the “inhibition zone (IZ)” value in the test with Pseudomonas putida turned out to be 12 mm; with Bacillus subtilis it was 14 mm; with Escherichia coli, 14 mm; with Staphylococcus aureus, 14 mm; in the test with Klebsiella pneumoniae, 13 mm. In addition, the MIC (usually the least concentration at which growth counts as inhibited) was > 100 µg/mL against Pseudomonas putida; 100 µg/mL (≈ 278 µM) with Bacillus subtilis; > 50 µg/mL against Escherichia coli; 100 µg/mL (≈ 278 µM) in the test on Staphylococcus aureus; > 100 µg/mL against Klebsiella pneumoniae. For the same compound, the IC50 (in test [1]; in test [2]; with MDA-MB-231; in test [3]; in the test on HeLa; in test [4]) was > 100 µM each time.
On to `O=C(NCCc1c[nH]c2ccccc12)C(=O)c1cn(Cc2ccc(Cl)cc2)c2ccc(Br)cc12`, for which the “inhibition zone (IZ)” value with Pseudomonas putida was 14 mm; with Bacillus subtilis it was 14 mm; with Escherichia coli it was 15 mm; with Staphylococcus aureus, 13 mm; in the test with Klebsiella pneumoniae, 14 mm. Also, the MIC against Pseudomonas putida was > 100 µg/mL; in the test with Bacillus subtilis, 100 µg/mL (≈ 187 µM); in the test on Escherichia coli, 100 µg/mL (≈ 187 µM); with Staphylococcus aureus, 100 µg/mL (≈ 187 µM); in the test with Klebsiella pneumoniae, > 50 µg/mL. In addition, the IC50 (in test [1]; in [2]; in the test on MDA-MB-231; in test [3]; with HeLa; in test [4]) was > 100 µM each time.
For the compound `O=C(NCCc1c[nH]c2ccccc12)C(=O)c1cn(Cc2ccc(F)cc2)c2ccccc12`, the “inhibition zone (IZ)” value is reported as 15 mm with Pseudomonas putida; 12 mm in the test on Bacillus subtilis; 15 mm with Escherichia coli; 14 mm in the test with Staphylococcus aureus; 13 mm with Klebsiella pneumoniae. The minimal inhibitory concentration (MIC) against Pseudomonas putida is 100 µg/mL (≈ 228 µM); with Bacillus subtilis, > 100 µg/mL; against Escherichia coli, 100 µg/mL (≈ 228 µM); against Staphylococcus aureus, > 100 µg/mL; against Klebsiella pneumoniae, > 100 µg/mL. Besides, the IC50 (in test [1]; in test [2]; with MDA-MB-231; in test [3]; with HeLa; in test [4]) was > 100 µM throughout.
Take `COc1ccc2c(C(=O)C(=O)NCCc3c[nH]c4ccccc34)c[nH]c2c1`: the “inhibition zone (IZ)” value is given as 15 mm with Pseudomonas putida; 15 mm in the test on Bacillus subtilis; 14 mm in the test with Escherichia coli; 14 mm in the test on Staphylococcus aureus; 15 mm in the test with Klebsiella pneumoniae. The minimal inhibitory concentration (MIC) is > 50 µg/mL against Pseudomonas putida; > 100 µg/mL in the test with Bacillus subtilis; > 50 µg/mL against Escherichia coli; 100 µg/mL (≈ 277 µM) in the test with Staphylococcus aureus; 100 µg/mL (≈ 277 µM) in the test on Klebsiella pneumoniae. The IC50 (in test [1]; in [2]; in the test with MDA-MB-231; in test [3]; with HeLa; in test [4]) was > 100 µM throughout.
Take `O=C(NCCc1c[nH]c2ccccc12)C(=O)c1cn(Cc2ccc(Cl)cc2)c2ccc(F)cc12`: the “inhibition zone (IZ)” value is on record as 14 mm with Pseudomonas putida; 13 mm in the test with Bacillus subtilis; 14 mm in the test with Escherichia coli; 13 mm with Staphylococcus aureus; 12 mm with Klebsiella pneumoniae. The MIC is 100 µg/mL (≈ 211 µM) against Pseudomonas putida; > 50 µg/mL in the test on Bacillus subtilis; 100 µg/mL (≈ 211 µM) with Escherichia coli; 100 µg/mL (≈ 211 µM) against Staphylococcus aureus; > 100 µg/mL in the test with Klebsiella pneumoniae. In addition, the IC50 (in [1]; in [2]; with MDA-MB-231; in test [3]; in the test with HeLa; in test [4]) was > 100 µM each time.
Take `COc1ccc2[nH]cc(C(=O)C(=O)CCCc3c[nH]c4ccccc34)c2c1`: the “inhibition zone (IZ)” value with Pseudomonas putida, in the test on Escherichia coli and with Klebsiella pneumoniae was 15 mm each time. The figures for the MIC with Pseudomonas putida, in the test on Escherichia coli and against Klebsiella pneumoniae were 100 µg/mL (≈ 277 µM), 100 µg/mL (≈ 277 µM) and 50 µg/mL (≈ 139 µM), respectively. Further, the IC50 (in [1]; in [2]; with MDA-MB-231; in [3]; with HeLa; in test [4]) was > 100 µM throughout.
As to `O=C(NCCc1c[nH]c2ccccc12)C(=O)c1c[nH]c2ccc(Br)cc12`, the “inhibition zone (IZ)” value was 14 mm in the test with Pseudomonas putida; 14 mm in the test with Bacillus subtilis; 16 mm in the test on Escherichia coli; 15 mm in the test with Staphylococcus aureus; 15 mm in the test with Klebsiella pneumoniae. The MIC in the test on Pseudomonas putida was 100 µg/mL (≈ 244 µM); against Bacillus subtilis, 100 µg/mL (≈ 244 µM); in the test with Escherichia coli, 50 µg/mL (≈ 122 µM); against Staphylococcus aureus, > 100 µg/mL; in the test on Klebsiella pneumoniae, 100 µg/mL (≈ 244 µM). Besides, the IC50 (in test [1]; in test [2]; in the test with MDA-MB-231; in [3]; with HeLa; in test [4]) was > 100 µM throughout.
With `COc1cccc2c1C(=O)c1c(O)c3c(c(O)c1C2=O)C[C@@](O)(C(=O)CO)C[C@@H]3O[C@H]1C[C@H](N)[C@H](O)[C@H](C)O1` [DOXORUBICIN], the 50% inhibitory concentration (IC50) (in general, the midpoint of a concentration-inhibition curve) came to 3.1 µM in test [1], 13 µM in test [2], 9.5 µM in [3] and 1.85 µM in test [4].
Consider `COc1ccc2c(C(=O)C(=O)NCCc3c[nH]c4ccccc34)cn(Cc3ccc(Cl)cc3)c2c1`, for which the entries for the “inhibition zone (IZ)” value in the test with Pseudomonas putida, with Escherichia coli and in the test on Klebsiella pneumoniae were 16 mm, 15 mm and 15 mm, respectively. For the same compound, the MIC in the test on Pseudomonas putida was 50 µg/mL (≈ 103 µM); in the test on Escherichia coli it was 50 µg/mL (≈ 103 µM); in the test with Klebsiella pneumoniae, > 50 µg/mL. Further, the half-inhibitory concentration (IC50) (in test [1]; in test [2]; in the test on MDA-MB-231; in test [3]; in the test on HeLa; in test [4]) was > 100 µM each time.
Regarding `COc1ccc2c(c1)c(C(=O)C(=O)NCCc1c[nH]c3ccccc13)cn2Cc1ccc(Cl)cc1`, the “inhibition zone (IZ)” value in the test with Pseudomonas putida came to 15 mm; in the test on Escherichia coli, 13 mm. For the same compound, the minimum inhibitory concentration (MIC) is 50 µg/mL (≈ 103 µM) against Pseudomonas putida and > 100 µg/mL with Escherichia coli. The IC50 (in test [1]; in [2]; in the test on MDA-MB-231; in test [3]; in the test on HeLa; in [4]) was > 100 µM throughout.
For `O=C(N[C@H](CO)[C@H](O)c1ccc([N+](=O)[O-])cc1)C(Cl)Cl` [CHLORAMPHENICOL], the “inhibition zone (IZ)” value is 21 mm in the test on Pseudomonas putida; 22 mm in the test on Bacillus subtilis; 22 mm in the test with Escherichia coli; 21 mm in the test on Staphylococcus aureus; 20 mm with Klebsiella pneumoniae.

The values are drawn from ChEMBL document CHEMBL3808279, “Sequential one-pot synthesis of bis(indolyl)glyoxylamides: Evaluation of antibacterial and anticancer activities” (Bioorg Med Chem Lett, 2016).
